In article PMC7181660, “A novel specific PERK activator reduces toxicity and extends survival in Huntington's disease models” (Scientific Reports, 2020):

Experiments:
Test in all cases: biochemical
Format in all cases: biochemical
panel of 391 kinases [1] = molecular target: panel of 391 kinases (Homo sapiens, UniProt Q9Y2H1); conditions: STK38L/NDR2, MK-28 1 µM, ATP 1 µM
panel of 391 kinases [2] = molecular target: panel of 391 kinases (Homo sapiens, UniProt P21709); conditions: EPHA1, MK-28 1 µM, ATP 1 µM
panel of 391 kinases [3] = molecular target: panel of 391 kinases (Homo sapiens, UniProt P53778); conditions: P38g, MK-28 1 µM, ATP 1 µM
panel of 391 kinases [4] = molecular target: panel of 391 kinases (Homo sapiens, UniProt Q02750); conditions: MEK1, MK-28 1 µM, ATP 1 µM
panel of 391 kinases [5] = molecular target: panel of 391 kinases (Homo sapiens, UniProt Q86V86); conditions: PIM3, MK-28 1 µM, ATP 1 µM
panel of 391 kinases [6] = molecular target: panel of 391 kinases (Homo sapiens, UniProt Q6VAB6); conditions: KSR2, MK-28 1 µM, ATP 1 µM
panel of 391 kinases [7] = molecular target: panel of 391 kinases (Homo sapiens, UniProt P36896); conditions: ALK4/ACVR1B, MK-28 1 µM, ATP 1 µM
panel of 391 kinases [8] = molecular target: panel of 391 kinases (Homo sapiens, UniProt O43293); conditions: kinase ZIPK/DAPK3, compound at 1 µM, single dose in duplicates, 1 µM ATP
panel of 391 kinases [9] = molecular target: panel of 391 kinases (Homo sapiens, UniProt P07333); conditions: FMS, MK-28 1 µM, ATP 1 µM
panel of 391 kinases [10] = molecular target: panel of 391 kinases (Homo sapiens, UniProt P29317); conditions: EPHA2, MK-28 1 µM, ATP 1 µM
panel of 391 kinases [11] = molecular target: panel of 391 kinases (Homo sapiens, UniProt O15111); conditions: IKKa/CHUK, MK-28 1 µM, ATP 1 µM
panel of 391 kinases [12] = molecular target: panel of 391 kinases (Homo sapiens, UniProt Q8IY84); conditions: NIM1, MK-28 1 µM, ATP 1 µM
panel of 391 kinases [13] = molecular target: panel of 391 kinases (Homo sapiens, UniProt Q8N752); conditions: CK1a1L, MK-28 1 µM, ATP 1 µM
panel of 391 kinases [14] = molecular target: panel of 391 kinases (Homo sapiens, UniProt Q13555); conditions: CAMK2g, MK-28 1 µM, ATP 1 µM
panel of 391 kinases [15] = molecular target: panel of 391 kinases (Homo sapiens, UniProt P23458); conditions: JAK1, MK-28 1 µM, ATP 1 µM
panel of 391 kinases [16] = molecular target: panel of 391 kinases (Homo sapiens, UniProt Q96QT4); conditions: kinase TRPM7/CHAK1, compound at 1 µM, single dose in duplicates, 1 µM ATP
panel of 391 kinases [17] = molecular target: panel of 391 kinases (Homo sapiens, UniProt P24723); conditions: PKCeta, MK-28 1 µM, ATP 1 µM
panel of 391 kinases [18] = molecular target: panel of 391 kinases (Homo sapiens, UniProt Q15349); conditions: RSK3, MK-28 1 µM, ATP 1 µM
panel of 391 kinases [19] = molecular target: panel of 391 kinases (Homo sapiens, UniProt P23443); conditions: p70S6K/RPS6KB1, MK-28 1 µM, ATP 1 µM
panel of 391 kinases [20] = molecular target: panel of 391 kinases (Homo sapiens, UniProt Q12866); conditions: c-MER, MK-28 1 µM, ATP 1 µM
panel of 391 kinases [21] = molecular target: panel of 391 kinases (Homo sapiens, UniProt O75582); conditions: MSK1/RPS6KA5, MK-28 1 µM, ATP 1 µM
panel of 391 kinases [22] = molecular target: panel of 391 kinases (Homo sapiens, UniProt P20794); conditions: MAK, MK-28 1 µM, ATP 1 µM
panel of 391 kinases [23] = molecular target: panel of 391 kinases (Homo sapiens, UniProt P78527); conditions: kinase DNA-PK, compound at 1 µM, single dose in duplicates, 1 µM ATP
panel of 391 kinases [24] = molecular target: panel of 391 kinases (Homo sapiens, UniProt Q9Y4K4); conditions: KHS/MAP4K5, MK-28 1 µM, ATP 1 µM
panel of 391 kinases [25] = molecular target: panel of 391 kinases (Homo sapiens, UniProt Q15120); conditions: kinase PDK3/PDHK3, compound at 1 µM, single dose in duplicates, 1 µM ATP
panel of 391 kinases [26] = molecular target: panel of 391 kinases (Homo sapiens, UniProt Q92918); conditions: HPK1/MAP4K1, MK-28 1 µM, ATP 1 µM
[27] = read-out: % Enzyme Activity (relative to DMSO controls)

## CN(/N=C\c1ccc(O)c(O)c1)c1nc(-c2ccccc2)cc(-c2ccccc2)n1 [MK-28]
Panel of 391 kinases [1]
  % Enzyme Activity (relative to DMSO controls): 94.10%
Panel of 391 kinases [1]; [27]
  remaining activity at 1 µM: 96%
Panel of 391 kinases [2]
  % Enzyme Activity (relative to DMSO controls): 99.87%
Panel of 391 kinases [2]; [27]
  remaining activity at 1 µM: 102%
Panel of 391 kinases [3]
  % Enzyme Activity (relative to DMSO controls): 100.96%
Panel of 391 kinases [3]; [27]
  remaining activity at 1 µM: 107%
Panel of 391 kinases [4]
  % Enzyme Activity (relative to DMSO controls): 99.18%
Panel of 391 kinases [4]; [27]
  remaining activity at 1 µM: 100%
Panel of 391 kinases [5]
  % Enzyme Activity (relative to DMSO controls): 87.24%
Panel of 391 kinases [5]; [27]
  remaining activity at 1 µM: 89.2%
Panel of 391 kinases [6]
  % Enzyme Activity (relative to DMSO controls): 93.44%
Panel of 391 kinases [6]; [27]
  remaining activity at 1 µM: 96%
Panel of 391 kinases [7]
  % Enzyme Activity (relative to DMSO controls): 89.88%
Panel of 391 kinases [7]; [27]
  remaining activity at 1 µM: 92.3%
Panel of 391 kinases [8]
  % Enzyme Activity (relative to DMSO controls): 79.41%
Panel of 391 kinases [8]; [27]
  remaining activity at 1 µM: 79.9%
Panel of 391 kinases [9]
  % Enzyme Activity (relative to DMSO controls): 101.26%
Panel of 391 kinases [9]; [27]
  remaining activity at 1 µM: 102%
Panel of 391 kinases [10]
  % Enzyme Activity (relative to DMSO controls): 99.61%
Panel of 391 kinases [10]; [27]
  remaining activity at 1 µM: 100%
Panel of 391 kinases [11]
  % Enzyme Activity (relative to DMSO controls): 106.17%
Panel of 391 kinases [11]; [27]
  remaining activity at 1 µM: 107%
Panel of 391 kinases [12]
  % Enzyme Activity (relative to DMSO controls): 98.00%
Panel of 391 kinases [12]; [27]
  remaining activity at 1 µM: 104%
Panel of 391 kinases [13]
  % Enzyme Activity (relative to DMSO controls): 99.36%
Panel of 391 kinases [13]; [27]
  remaining activity at 1 µM: 100%
Panel of 391 kinases [14]
  % Enzyme Activity (relative to DMSO controls): 86.57%
Panel of 391 kinases [14]; [27]
  remaining activity at 1 µM: 87.8%
Panel of 391 kinases [15]
  % Enzyme Activity (relative to DMSO controls): 100.53%
Panel of 391 kinases [15]; [27]
  remaining activity at 1 µM: 101%
Panel of 391 kinases [16]
  % Enzyme Activity (relative to DMSO controls): 102.70%
Panel of 391 kinases [16]; [27]
  remaining activity at 1 µM: 104%
Panel of 391 kinases [17]
  % Enzyme Activity (relative to DMSO controls): 98.39%
Panel of 391 kinases [17]; [27]
  remaining activity at 1 µM: 101%
Panel of 391 kinases [18]
  % Enzyme Activity (relative to DMSO controls): 100.80%
Panel of 391 kinases [18]; [27]
  remaining activity at 1 µM: 103%
Panel of 391 kinases [19]
  % Enzyme Activity (relative to DMSO controls): 97.34%
Panel of 391 kinases [19]; [27]
  remaining activity at 1 µM: 99%
Panel of 391 kinases [20]
  % Enzyme Activity (relative to DMSO controls): 97.57%
Panel of 391 kinases [20]; [27]
  remaining activity at 1 µM: 98.6%
Panel of 391 kinases [21]
  % Enzyme Activity (relative to DMSO controls): 97.92%
Panel of 391 kinases [21]; [27]
  remaining activity at 1 µM: 98.4%
Panel of 391 kinases [22]
  % Enzyme Activity (relative to DMSO controls): 94.70%
Panel of 391 kinases [22]; [27]
  remaining activity at 1 µM: 97.8%
Panel of 391 kinases [23]
  % Enzyme Activity (relative to DMSO controls): 102.10%
Panel of 391 kinases [23]; [27]
  remaining activity at 1 µM: 103%
Panel of 391 kinases [24]
  % Enzyme Activity (relative to DMSO controls): 84.30%
Panel of 391 kinases [24]; [27]
  remaining activity at 1 µM: 86.9%
Panel of 391 kinases [25]
  % Enzyme Activity (relative to DMSO controls): 102.25%
Panel of 391 kinases [25]; [27]
  remaining activity at 1 µM: 105%
Panel of 391 kinases [26]
  % Enzyme Activity (relative to DMSO controls): 114.23%
Panel of 391 kinases [26]; [27]
  remaining activity at 1 µM: 117%
